# According to patent publication US11795204B2 (Zealand Pharma A/S, priority 2012, dated 2023):
# Tests used:
# [1] = Solubility assessment (turbidity absorbance at 325 nm); settings: phosphate buffer, pH 7.5
# Summary of the method: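 Peptide stock 2 mg/ml (A280-quantified) in water at pH 2.5, diluted 1:1 into 100 mM acetate pH 4.0 or 100 mM phosphate pH 7.5. Absorbance at 280 and 325 nm read at ambient temperature, single samples (n=1).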
# [2] = Assessment of physical stability (Thioflavin T fibril formation lag-time); assay type: physicochemical; settings: 1 mg/ml, 50 mM phosphate pH 7.5, 40° C., 96 hours
# Experimental: A solution containing 1 mg/ml of peptide, 40 μM ThT and 50 mM phosphate buffer, pH 7.5, was loaded in a 96-well black fluorescence plate (clear bottom) in triplicate. Data were collected at fixed intervals of 10 min, each preceded by 300 s of automixing (agitation), over a period of 96 hours at 40° C. The entire experiment was repeated, but without agitation. Physical stability, expressed as lag-time of fibril formation (in hours), was defined as the intersection between two linear regressions representing the initial stable phase and the growth phase.
# [3] = Chemical stability assessment (RP-HPLC normalized purity); assay type: physicochemical
# Summary of the method: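 Samples were held at 40°C and analysed by C18 reverse-phase HPLC, acetonitrile/TFA/water gradient, with UV detection at 220 nm. Purity is main-peak area-% of total, normalized to time zero after 14 days.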
compound,measurement,setting,value
CC(C)C[C@H](NC(=O)[C@H](Cc1c[nH]c2ccccc12)NC(=O)[C@H](CCCCN)NC(=O)[C@@H](NC(=O)[C@H](Cc1ccccc1)NC(=O)[C@H](CCC(=O)O)NC(=O)[C@H](CCC(=O)O)NC(=O)[C@H](C)NC(=O)[C@H](CCCNC(=N)N)NC(=O)[C@H](C)NC(=O)C(C)(C)NC(=O)[C@H](CC(=O)O)NC(=O)[C@H](CC(C)C)NC(=O)[C@H](Cc1ccc(O)cc1)NC(=O)[C@H](CCCCN)NC(=O)[C@H](CO)NC(=O)[C@H](Cc1ccc(O)cc1)NC(=O)[C@H](CC(=O)O)NC(=O)[C@H](CO)NC(=O)[C@@H](NC(=O)[C@H](Cc1ccccc1)NC(=O)[C@@H](NC(=O)CNC(=O)[C@H](CCC(N)=O)NC(=O)[C@H](CO)NC(=O)[C@@H](N)Cc1c[nH]cn1)[C@@H](C)O)[C@@H](C)O)C(C)C)C(=O)N[C@@H](CCC(=O)O)C(=O)N[C@@H](CO)C(=O)N[C@H](C(=O)O)[C@@H](C)O [Compound 21],solubility,[1],≥ 1000 µg/mL
same,Physical Stability at pH 7.5 (agitated),[2]; with agitation,FND
same,Physical Stability at pH 7.5 (non-agitated),[2]; without agitation,FND
same,Normalized purity pH 4.0 after 14 days,"[3]; 1 mg/ml in 50 mM acetate buffer pH 4.0, 40° C.",89.8%
same,Normalized purity pH 7.5 after 14 days,"[3]; 1 mg/ml in 50 mM phosphate buffer pH 7.5, 40° C.",93.5%
